Test results published in patent US11026943B2, “Aminoquinoline derivatives and uses thereof” (UNIVERSITY OF DELHI, priority 2012, dated 2021).
Values belong to the compound of their own block, whether it stands above or below them.

Columns and labels:
VERO cells = assay: In vitro cytotoxicity to mammalian cells, VERO; format: cell-based; details: for IC50: Chlorocebus sabaeus, Vero, in vitro cytotoxicity to mammalian cells; for toxicity to cell lines: all the three cell lines (VERO, LLC-PK-1, and HepG2)
Text: (§1) Med. Chem. 2005, 13, 4458; Khan, I. A. Lipids 2004, 37, 169].

[1] = system: CQ-sensitive (D6 clone) strain of P. falciparum; assay: In vitro antimalarial activity, CQ-sensitive strain; format: cell-based, Plasmodium falciparum; details: for activity fold higher than artemisinin: CQ-sensitive strain; for IC50: Plasmodium falciparum, CQ-sensitive D6 clone, read-out: P. falciparum (D6 Clone) IC50; for P. falciparum (D6 Clone) S.I.: selectivity index = IC50 cytotoxicity to Vero cells / IC50 antimalarial; for selectivity index of antimalarial activity: ratio of IC50 for cytotoxicity to Vero cells and IC50 for antimalarial activity
Text: as §1

[2] = system: CQ-resistant (W2 clone) strain of P. falciparum; assay: In vitro antimalarial activity, CQ-resistant strain; format: cell-based, Plasmodium falciparum; details: for IC50: Plasmodium falciparum, CQ-resistant W2 clone, read-out: P. falciparum (W2 Clone) IC50; for P. falciparum (W2 Clone) S.I.: selectivity index = IC50 cytotoxicity to Vero cells / IC50 antimalarial
Text: as §1

HepG2 cells = assay: In vitro cytotoxicity to mammalian cells, HepG2; format: cell-based; details: Homo sapiens
Text: as §1

LLC-PK-1 cells = assay: In vitro cytotoxicity to mammalian cells, LLC-PK-1; format: cell-based; details: Sus scrofa, LLC-PK1
Text: as §1

parasitemia = assay: In-vivo antimalarial activity in mice; details: mice; for parasitemia suppression / % Parasitemia suppression Day 5: day 5; for parasitemia suppression / survival rate / apparent toxicity: 30 mg/kg for 3 days post infection; for survival rate / Survival (animals that survived day 28/total animals in group): day 28; for Cure (number of mice without parasitemia till day 28 post-infection) / MST (mean survival time) / Remarks (toxicity) / % Parasitemia suppression Day 5 / % Parasitemia suppression Day 7 / Survival (animals that survived day 28/total animals in group) / Day of Death: PO; for Day of Death: per animal
[3] = 3.3 mg/kg × 3 days post-infection
[4] = 10 mg/kg × 3 days post-infection
[5] = 30 mg/kg × 3 days post-infection

- melting point: 214 to 216 °C
Structure (SMILES): Cc1cc(NCCCCNc2ccnc3cc(Cl)ccc23)nc(N2CCOCC2)n1 [12g, N-(7-Chloro-quinolin-4-yl)-N′-(6-methyl-2-morpholin-4-yl-pyrimidin-4-yl)-butane-1,4-diamine]

- IC50 [1]: 0.007 µM
- melting point: 176 to 178 °C
- IC50 [2]: 0.063 µM
Structure (SMILES): Cc1cc(NCCCNc2ccnc3cc(Cl)ccc23)nc(N2CCN(C)CC2)n1 [12j, N-(7-Chloro-quinolin-4-yl)-N′-[6-methyl-2-(4-methyl-piperazin-1-yl)-pyrimidin-4-yl]-propane-1,3-diamine]
- IC50 (VERO cells): > 60 µM
- activity fold higher than artemisinin [1]: 2 fold
- P. falciparum (D6 Clone) S.I. [1]: (>8571)
- P. falciparum (W2 Clone) S.I. [2]: (>952)
- IC50 (HepG2 cells): 25.8 µM
- IC50 (LLC-PK-1 cells): 35.2 µM

- IC50 [1]: 0.022 µM
- melting point: 165 to 167 °C
- IC50 [2]: 0.058 µM
Structure (SMILES): Cc1cc(NCCCNc2ccnc3cc(Cl)ccc23)nc(N2CCOCC2)n1 [12f, N-(7-Chloro-quinolin-4-yl)-N′-(6-methyl-2-morpholin-4-yl-pyrimidin-4-yl)-propane-1,3-diamine]
- IC50 (VERO cells): > 60 µM
- P. falciparum (D6 Clone) S.I. [1]: (>2727)
- P. falciparum (W2 Clone) S.I. [2]: (>1034)
- IC50 (HepG2 cells): 26.1 µM
- IC50 (LLC-PK-1 cells): 35.1 µM

- IC50 [1]: 0.021 µM
- melting point: 187 to 189 °C
- IC50 [2]: 0.082 µM
Structure (SMILES): Cc1cc(NCCCCNc2ccnc3cc(Cl)ccc23)nc(N2CCCCC2)n1 [12c, N-(7-Chloro-quinolin-4-yl)-N′-(6-methyl-2-piperidin-1-yl-pyrimidin-4-yl)-butane-1,4-diamine]
- IC50 (VERO cells): > 60 µM
- P. falciparum (D6 Clone) S.I. [1]: (>2857)
- P. falciparum (W2 Clone) S.I. [2]: (>730)
- IC50 (HepG2 cells): > 60 µM
- IC50 (LLC-PK-1 cells): > 60 µM

- IC50 [1]: 0.025 µM
- melting point: 165 to 167 °C
- IC50 [2]: 0.12 µM
Structure (SMILES): Cc1cc(NCCNc2ccnc3cc(Cl)ccc23)nc(N2CCOCC2)n1 [12e, N-(7-Chloro-quinolin-4-yl)-N′-(6-methyl-2-morpholin-4-yl-pyrimidin-4-yl)-ethane-1,2-diamine]
- IC50 (VERO cells): > 60 µM
- P. falciparum (D6 Clone) S.I. [1]: (>2400)
- P. falciparum (W2 Clone) S.I. [2]: (>500)
- IC50 (HepG2 cells): > 60 µM
- IC50 (LLC-PK-1 cells): > 60 µM

- melting point: 177 to 179 °C
Structure (SMILES): Cc1cc(NCCNc2ccnc3cc(Cl)ccc23)nc(N2CCCCC2)n1 [12a, N-(7-chloro-quinolin-4-yl)-N′-(6-methyl-2-piperidin-1-yl-pyrimidin-4-yl)-ethane-1,2-diamine]

- IC50 [1]: 0.066 µM
- melting point: 97 to 99 °C
- IC50 [2]: 0.128 µM
Structure (SMILES): Cc1cc(NCCCCCCNc2ccnc3cc(Cl)ccc23)nc(N2CCCCC2)n1 [12d, N-(7-Chloro-quinolin-4-yl)-N′-(6-methyl-2-piperidin-1-yl-pyrimidin-4-yl)-hexane-1,6-diamine]
- IC50 (VERO cells): 9.4 µM
- toxicity to cell lines (VERO cells): showed toxicity
- selectivity index of antimalarial activity [1]: considerably high
- P. falciparum (D6 Clone) S.I. [1]: 142.4
- P. falciparum (W2 Clone) S.I. [2]: 73.4
- IC50 (HepG2 cells): < 6.7 µM
- IC50 (LLC-PK-1 cells): < 6.7 µM

- IC50 [1]: 0.007 µM
- melting point: 152 to 154 °C
- IC50 [2]: 0.016 µM
Structure (SMILES): Cc1cc(NCCCCCCNc2ccnc3cc(Cl)ccc23)nc(N2CCN(C)CC2)n1 [12l, N-(7-Chloro-quinolin-4-yl)-N′-[6-methyl-2-(4-methyl-piperazin-1-yl)-pyrimidin-4-yl]-hexane-1,6-diamine]
- IC50 (VERO cells): 10.2 µM
- toxicity to cell lines (VERO cells): showed toxicity
- activity fold higher than artemisinin [1]: 2 fold
- selectivity index of antimalarial activity [1]: considerably high
- P. falciparum (D6 Clone) S.I. [1]: (>1457)
- P. falciparum (W2 Clone) S.I. [2]: (>637)
- IC50 (HepG2 cells): < 6.7 µM
- IC50 (LLC-PK-1 cells): 7.4 µM

- IC50 [1]: 0.019 µM
- melting point: 101 to 103 °C
- IC50 [2]: 0.018 µM
Structure (SMILES): CCN1CCN(c2nc(C)cc(NCCCCNc3ccnc4cc(Cl)ccc34)n2)CC1 [12n, N-(7-Chloro-quinolin-4-yl)-N′-[2-(4-ethyl-piperazin-1-yl)-6-methyl-pyrimidin-4-yl]-butane-1,4-diamine]
- IC50 (VERO cells): 31.9 µM
- P. falciparum (D6 Clone) S.I. [1]: 1678.9
- P. falciparum (W2 Clone) S.I. [2]: 1772.2
- IC50 (HepG2 cells): 14.9 µM
- IC50 (LLC-PK-1 cells): 10.5 µM

Structure (SMILES): Cc1cc(NCCNc2ccnc3cc(Cl)ccc23)nc(N2CCN(C)CC2)n1 [12i, N-(7-Chloro-quinolin-4-yl)-N′-[6-methyl-2-(4-methyl-piperazin-1-yl)-pyrimidin-4-yl]-ethane-1,2-diamine]
- IC50 (VERO cells): > 60 µM
- activity fold higher than artemisinin [1]: 2 fold
- IC50 [1]: 0.006 µM
- P. falciparum (D6 Clone) S.I. [1]: (>10000)
- parasitemia suppression (parasitemia): 100%
- survival rate (parasitemia): 5/5
- apparent toxicity (parasitemia): No apparent toxicity
- Cure (number of mice without parasitemia till day 28 post-infection) (parasitemia; [3]): 0/5
- MST (mean survival time) (parasitemia; [3]): 19.2 days
- Remarks (toxicity) (parasitemia; [3]): No apparent
- % Parasitemia suppression Day 5 (parasitemia; [3]): 23.52%
- % Parasitemia suppression Day 7 (parasitemia; [3]): 35.21%
- Survival (animals that survived day 28/total animals in group) (parasitemia; [3]): 1/5
- Day of Death (parasitemia; [3]): 21/28/21/13/13
- Cure (number of mice without parasitemia till day 28 post-infection) (parasitemia; [4]): 0/5
- MST (mean survival time) (parasitemia; [4]): 21.4 days
- Remarks (toxicity) (parasitemia; [4]): No apparent
- % Parasitemia suppression Day 5 (parasitemia; [4]): 97.03%
- % Parasitemia suppression Day 7 (parasitemia; [4]): 2.03%
- Survival (animals that survived day 28/total animals in group) (parasitemia; [4]): 0/5
- Day of Death (parasitemia; [4]): 21/22/22/21/21
- Cure (number of mice without parasitemia till day 28 post-infection) (parasitemia; [5]): 4/5
- MST (mean survival time) (parasitemia; [5]): 28 days
- Remarks (toxicity) (parasitemia; [5]): No apparent
- % Parasitemia suppression Day 5 (parasitemia; [5]): 100.00%
- % Parasitemia suppression Day 7 (parasitemia; [5]): 100.00%
- Survival (animals that survived day 28/total animals in group) (parasitemia; [5]): 5/5
- Day of Death (parasitemia; [5]): 28/28/28/28/28
- IC50 [2]: 0.046 µM
- P. falciparum (W2 Clone) S.I. [2]: (>1304)
- IC50 (HepG2 cells): > 60 µM
- IC50 (LLC-PK-1 cells): > 60 µM

- IC50 [1]: 0.041 µM
- melting point: 107 to 109 °C
- IC50 [2]: 0.12 µM
Structure (SMILES): Cc1cc(NCCCCCCNc2ccnc3cc(Cl)ccc23)nc(N2CCOCC2)n1 [12h, N-(7-Chloro-quinolin-4-yl)-N′-(6-methyl-2-morpholin-4-yl-pyrimidin-4-yl)-hexane-1,6-diamine]
- IC50 (VERO cells): 17.1 µM
- toxicity to cell lines (VERO cells): showed toxicity
- selectivity index of antimalarial activity [1]: considerably high
- P. falciparum (D6 Clone) S.I. [1]: 417.0
- P. falciparum (W2 Clone) S.I. [2]: 142.5
- IC50 (HepG2 cells): < 6.7 µM
- IC50 (LLC-PK-1 cells): 9.8 µM

- IC50 [1]: 0.022 µM
- melting point: 183 to 185 °C
- IC50 [2]: 0.021 µM
Structure (SMILES): Cc1cc(NCCCCNc2ccnc3cc(Cl)ccc23)nc(N2CCN(C)CC2)n1 [12k, N-(7-Chloro-quinolin-4-yl)-N′-[6-methyl-2-(4-methyl-piperazin-1-yl)-pyrimidin-4-yl]-butane-1,4-diamine]
- IC50 (VERO cells): > 60 µM
- P. falciparum (D6 Clone) S.I. [1]: (>2727)
- P. falciparum (W2 Clone) S.I. [2]: (>2857)
- IC50 (HepG2 cells): 27.2 µM
- IC50 (LLC-PK-1 cells): 34 µM

Structure (SMILES): CCN1CCN(c2nc(C)cc(NCCCNc3ccnc4cc(Cl)ccc34)n2)CC1 [12m, N-(7-Chloro-quinolin-4-yl)-N′-[2-(4-ethyl-piperazin-1-yl)-6-methyl-pyrimidin-4-yl]-propane-1,3-diamine]
- IC50 (VERO cells): > 60 µM
- activity fold higher than artemisinin [1]: 2 fold
- IC50 [1]: 0.006 µM
- P. falciparum (D6 Clone) S.I. [1]: (>10000)
- parasitemia suppression (parasitemia): 100%
- survival rate (parasitemia): 4/5
- apparent toxicity (parasitemia): No apparent toxicity
- Cure (number of mice without parasitemia till day 28 post-infection) (parasitemia; [3]): 0/5
- MST (mean survival time) (parasitemia; [3]): 20.2 days
- Remarks (toxicity) (parasitemia; [3]): No apparent
- % Parasitemia suppression Day 5 (parasitemia; [3]): 20.12%
- % Parasitemia suppression Day 7 (parasitemia; [3]): 19.09%
- Survival (animals that survived day 28/total animals in group) (parasitemia; [3]): 0/5
- Day of Death (parasitemia; [3]): 17/21/21/21/21
- Cure (number of mice without parasitemia till day 28 post-infection) (parasitemia; [4]): 0/5
- MST (mean survival time) (parasitemia; [4]): 15.2 days
- Remarks (toxicity) (parasitemia; [4]): No apparent
- % Parasitemia suppression Day 5 (parasitemia; [4]): 73.89%
- % Parasitemia suppression Day 7 (parasitemia; [4]): 27.14%
- Survival (animals that survived day 28/total animals in group) (parasitemia; [4]): 0/5
- Day of Death (parasitemia; [4]): 7/21/20/7/21
- Cure (number of mice without parasitemia till day 28 post-infection) (parasitemia; [5]): 1/5
- MST (mean survival time) (parasitemia; [5]): 27.2 days
- Remarks (toxicity) (parasitemia; [5]): No apparent
- % Parasitemia suppression Day 5 (parasitemia; [5]): 100.00%
- % Parasitemia suppression Day 7 (parasitemia; [5]): 100.00%
- Survival (animals that survived day 28/total animals in group) (parasitemia; [5]): 4/5
- Day of Death (parasitemia; [5]): 28/28/28/28/24
- IC50 [2]: 0.061 µM
- P. falciparum (W2 Clone) S.I. [2]: (>983)
- IC50 (HepG2 cells): > 60 µM
- IC50 (LLC-PK-1 cells): > 60 µM
